Source: ChEMBL document CHEMBL3120142 (J Med Chem, 2014)
The source made the active and inactive calls. The rule behind the calls is not given here.

System: Influenza A virus
Type: functional, organism-based
Conditions: A/Berlin/55/08(H1N1), MDCK

| SMILES | Activity |
| --- | --- |
| CCC(CC)O[C@@H]1C=C(C(=O)O)C[C@H](N)[C@H]1NC(C)=O [OSELTAMIVIR CARBOXYLATE] | Active |
| CC(=O)N[C@H]1[C@H]([C@H](O)[C@H](O)CO)OC(C(=O)O)=C[C@@H]1NC(=N)N [ZANAMIVIR] | Active |
